# Laboratory results as given in US4414388A, “1-Oxo-1H-thiazolo[3,2-a]pyrimidine-2-carboxamides” (Pfizer Inc., priority 1981, dated 1983).
# How the values were obtained:
# [1] = test system: passive systemic anaphylaxis; assay: passive systemic anaphylaxis (rise in plasma histamine on antigen challenge); format: in vivo, rat
# dogs [2] = assay: dogs, intravenous five days, serum enzymes; format: in vivo, dog; details: i.v. five days at 1, 3, 10, 3 and 3 mg/kg
# glucose tolerance = assay: glucose tolerance; format: in vivo, rat; details: 10, 30, or 100 mg/kg p.o. with glucose 1 g/kg p.o.
# Excerpt: This effect may be due to a delayed absorption of glucose related to a possible effect on gastric emptying.
# isolated rat monocytes = assay: ionophore-stimulated synthesis and release of SRS in isolated monocytes; format: cell-based
# [3] = test system: cold-restraint stress gastric ulcer; assay: cold-restraint stressed rat assay; format: in vivo
# Method: The effectiveness of the products of this invention as anticulcer agents is determined by the so-called cold-restraint stressed rat assay. In this test nonfasted female rats (Charles River C-D strain) weighing 70-140 gms. are administered the drug or carrier (control animals) intraperitoneally (in saline solution containing 1% carboxymethylcellulose and 0.1% Tween 80) or orally (in water) three hours before being lightly anesthetized with ether and taped in the supine position to individual sheets of plexiglass. After recovery from anesthesia, the restrained animals are positioned horizontally in a refrigerator maintained at 10°-12° C. and three hours later sacrificed by cervical dislocation. The abdomen of each rat is opened, the pylorus clamped, the stomach inflated with saline via an oral tube, the esophagus clamped and the stomach excised. The stomachs are placed in a 0.4% formaldehyde solution for approximately 30 seconds to harden the outer layers and facilitate examination. Each stomach is then cut open along the greater curvature and the glandular portion (hind stomach) examined for damage. The number of gastric erosions, their severity and the color of the stomachs is recorded. […]
# [4] = test system: IgE-mediated passive cutaneous anaphylaxis (PCA); assay: PCA test, intravenous, comparison with Intal, IgE-mediated permeability; format: in vivo, rat
# Method: In the PCA test, normal animals are injected intradermally (i.d.) with antibodies contained in serum obtained from actively sensitized animals. The animals are then challenged intravenously with antigen mixed with a dye such as Evans' Blue. The increased capillary permeability caused by the antigen-antibody reaction causes the dye to leak from the site of the antibody injection. The test animals are then asphyxiated and the intensity of the reaction determined by measuring the diameter and intensity of the blue coloration on the inner surface of the animals' skin.
# The ability of agents to interfere with PCA reactions is measured in male Charles River Wistar rats, 170-210 g. Reaginic antiserum, rich in IgE antibodies, is prepared according to Petillo et al., Int. Arch. […] Hyperimmune antiserum rich in IgG antibodies to hen egg albumin is prepared according to Orange et al., J. Exptl. […] Forty-eight hours prior to antigen challenge, the reaginic antiserum is injected intradermally (i.d.) into the shaved skin of a normal rat's back; 5 hours before challenge the hyperimmune antisera is similarly injected. […] The difference is expressed as percent blockage due to the compound employed.
# [5] = test system: dextran induced release of histamine; assay: dextran induced release of histamine into the rat peritoneal cavity; format: in vivo; details: ip
# Excerpt: Compound III inhibits dextran induced release of histamine into the rat peritoneal cavity.
# dogs [6] = assay: toleration study in dogs, 7 days oral; format: in vivo, dog
# Method: In toleration studies, III was given orally by gavage to dogs for a period of seven days at doses of 50, 150 and 300 mg/kg/day.
# point mutations = assay: Ames test in vitro; format: cell-based
# anesthetized dogs = assay: cardiovascular effects in anesthetized dogs; format: in vivo, dog; details: cumulative doses of 5 and 15 mg/kg, i.v.
# [7] = oral gavage 50, 150 and 300 mg/kg/day, seven days
structure (smiles),measurement,setting,value
"O=C(Nc1nnn[nH]1)c1cnc2sc3c(n2c1=O)CCCC3 [compound III, N-(5-tetrazolyl)-1-oxo-1H-cyclohexenothiazolo[3,2-a]pyrimidine-2-carboxamide]",ED50,"[1]; Rattus norvegicus, iv, rats passively sensitized with IgE-rich antiserum",0.028 mg/kg
same,rise in plasma histamine caused by antigen challenge,"[1]; rat, in vivo",prevented
same,serum enzyme levels,dogs [2],remained normal
same,effect on glucose tolerance,glucose tolerance,apparent dose-dependent improvement in glucose tolerance
same,"synthesis and release of SRS in isolated rat monocytes, stimulated by an ionophore",isolated rat monocytes,is not inhibited
same,"potency in the cold-restraint stress gastric ulcer procedure and the ethanol-induced rat ulcer assay, in words",[3]; oral,highly potent
same,potency in the cold-restraint stressed rat assay,"[3]; rat, in vivo",extremely potent
same,"intravenous activity in the PCA test, dose range",[4]; intravenous,0.03 to 1.0 mg/kg
same,changes in cutaneous permeability induced by IgE-mediated PCA,"[4]; rat, in vivo",blocks the changes in cutaneous permeability
same,ED50,[5],0.00033 mg/kg
same,emetic effect when administered by capsule after meals,"dogs [6]; capsule after, rather than before, meals",could be eliminated
same,emesis,dogs [6]; [7],observed at all doses
same,gross pathological changes,dogs [6]; [7],No gross pathological changes were observed
same,"microscopic examination of liver, kidney, heart and lung",dogs [6]; [7],did not reveal any changes
same,"point mutations, Ames test",point mutations,did not induce point mutations
same,blood pressure,anesthetized dogs,transient hypotension
same,heart rate,anesthetized dogs,variable changes in heart rate
same,pressor responses to epinephrine and bilateral carotid occlusion,anesthetized dogs,diminished slightly
